Reference: PMC7984254 (Biochimica et biophysica acta. Molecular cell research, 2020)

Tests used:
[1] = target: FGF14^Y158A:Nav1.6 (Homo sapiens, UniProt Q92915+Q9UQD0, Y153A); experiment: LCA dose response, FGF14^Y158A:Nav1.6 mutant complex
[2] = target: FGF14:FGF14 dimer (CLuc-FGF14 and FGF14-NLuc) (Homo sapiens, UniProt Q92915); experiment: LCA counter-screen and dose response, FGF14:FGF14 homodimer; assay type: cell-based; details: plateau; normalized to 0.3% DMSO
[3] = target: FGF14:Nav1.6 complex (CLuc-FGF14 and CD4-Nav1.6 C-tail-NLuc) (Homo sapiens, UniProt Q92915+Q9UQD0); experiment: cell-based; details: for activity at 30 µM: HEK293, 2 h, read-out: % luminescence, FGF14:Nav1.6 complex (HTS); for initial dose/concentration dependency against FGF14:Nav1.6: screening library compound, Suppl. Fig. 3
[4] = tested on: double stable HEK293 cells; experiment: CellTiter-Blue; assay type: cell-based; details: 30 μM; fluorescence read after 16 h; relative to DMSO controls
[5] = tested on: Nav1.6; experiment: Whole-cell patch-clamp electrophysiology in HEK-Nav1.6 cells; assay type: cell-based, human
[6] = tested on: hippocampal CA1 pyramidal neurons; experiment: Ex vivo patch-clamp of hippocampal CA1 pyramidal neurons in brain slices; assay type: cell-based, mice; details: 20 μM

Structure (SMILES): C1=C/COCc2cc(ccc2OCCN2CCCC2)Nc2nccc(n2)-c2cccc(c2)COC/1 [Pacritinib]
- effect on FGF14^Y158A:Nav1.6 complex compared with FGF14^WT [1]: abolished

Structure (SMILES): Cc1cnc(Nc2ccc(N3CCN(C)CC3)cc2)nc1Nc1cccc(S(=O)(=O)NC(C)(C)C)c1 [TG101209]
- FGF14^Y158A:Nav1.6 IMin/EMax ([1]; plateau, normalized to 0.3% DMSO): 78.0 percent luminescence
- FGF14:FGF14^WT IMin/EMax [2]: 150.6 percent luminescence

Structure (SMILES): C[C@H]1[C@H](C)CC[C@]2(C(=O)O)CC[C@]3(C)C(=CC[C@@H]4[C@@]5(C)CC[C@H](O)C(C)(C)[C@@H]5CC[C@]43C)[C@H]12 [Ursolic Acid]
- activity at 30 µM [3]: 104%

Structure (SMILES): O=[N+]([O-])c1ccc2c(c1)S(=O)(=O)C=C2 [Stattic]
- % fluorescence from the CTB assay (cell viability) [4]: 57.2%

Structure (SMILES): Cc1cnc(Nc2ccc(OCCN3CCCC3)cc2)nc1Nc1cccc(S(=O)(=O)NC(C)(C)C)c1 [Fedratinib]
- V½ of activation ([5]; HEK-Nav1.6 FGF14-GFP, 20 μM): −30.56 ± 1.9 mV
- V½ of steady-state inactivation ([5]; HEK-Nav1.6 FGF14-GFP, 20 μM): −60.8 ± 1.2 mV
- decay time constant (τ) of INa ([5]; HEK-Nav1.6 FGF14-GFP, 20 μM): 1.4 ± 0.06 ms
- peak transient Na+ current (INa) density ([5]; HEK-Nav1.6 FGF14-GFP, 20 μM): −81.27 ± 11.3 pA/pF
- long-term inactivation (LTI), normalized INa at pulse 3 ([5]; HEK-Nav1.6 FGF14-GFP, 30 min incubation, pulse 3): 0.89 ± 0.02%
- effect on long-term inactivation (LTI) ([5]; HEK-Nav1.6 FGF14^Y158A): no effect
- peak transient Na+ current (INa) density ([5]; HEK-Nav1.6 FGF14^Y158A-GFP, 20 μM): −26.65 ± 3.5 pA/pF
- V½ of activation ([5]; HEK-Nav1.6 FGF14^Y158A, 20 μM): −22.69 ± 1.2 mV
- V½ of steady-state inactivation, change compared to DMSO ([5]; HEK-Nav1.6 FGF14^Y158A, 20 μM): no significant change
- decay time constant (τ) of INa ([5]; HEK-Nav1.6 FGF14^Y158A, 20 μM): 1.8 ± 0.11 ms
- peak transient Na+ current (INa) density ([5]; HEK-Nav1.6 GFP (channel alone), 20 μM): −59.43 ± 6.0 pA/pF
- V½ of activation ([5]; HEK-Nav1.6 GFP, 20 μM): −25.7 ± 1.7 mV
- V½ of steady-state inactivation ([5]; HEK-Nav1.6 GFP, 20 μM): −61.7 ± 1.0 mV
- decay time constant (τ) of INa ([5]; HEK-Nav1.6 GFP, 20 μM): 1.3 ± 0.07 ms
- resting membrane potential, current threshold and voltage threshold for action potential firing ([6]; Fgf14^+/+ mice): no significant changes
- maximum number of evoked action potentials (AP) ([6]; Fgf14^+/+ mice, 1 hr slice incubation): 11.3 ± 1.4
- evoked action potentials ([6]; Fgf14^−/− mice, 1 hr slice incubation): 11.8 ± 2.7

Structure (SMILES): O=C(Nc1ccc([N+](=O)[O-])cc1Cl)c1cc(Cl)ccc1O [Niclosamide]
- activity at 30 µM [3]: 18.7%

Structure (SMILES): CC(C)(O)/C=C/C(=O)[C@](C)(O)[C@H]1[C@H](O)C[C@@]2(C)[C@@H]3CC=C4[C@@H](C=C(O)C(=O)C4(C)C)[C@]3(C)C(=O)C[C@]12C [Cucurbitacin I]
- activity at 30 µM [3]: 5.6%
- initial dose/concentration dependency against FGF14:Nav1.6 [3]: highly potent but undesirable curve shape

Structure (SMILES): NC(=O)c1cnc(N[C@@H]2CCCC[C@@H]2N)nc1Nc1cccc(-n2nccn2)c1 [PRT062607]
- initial dose/concentration dependency against FGF14:Nav1.6 [3]: promising concentration dependency

Structure (SMILES): Cc1ccc2c(=O)c3ccccc3n(CCCN)c2c1C.O=C(O)C(=O)O [ER 27319]
- initial dose/concentration dependency against FGF14:Nav1.6 [3]: less ideal

Structure (SMILES): N#CCNC(=O)c1ccc(-c2ccnc(Nc3ccc(N4CCOCC4)cc3)n2)cc1 [Momelotinib]
- effect on FGF14^Y158A:Nav1.6 complex compared with FGF14^WT [1]: abolished
